Laboratory results as given in the supplement of paper PMC10307832.

Key:
Experiment in all cases: relative viability (nuclei count vs DMSO), 5 days (fraction); higher = more cells survive
[1] = compound: C#Cc1cccc(Nc2ncnc3cc(OC)c(OCCCCCCC(=O)NO)cc23)c1 [CUDC-101] + CC(=O)Nc1cccc(-n2c(=O)n(C3CC3)c(=O)c3c(Nc4ccc(I)cc4F)n(C)c(=O)c(C)c32)c1 [Trametinib] (partner 0.02 µM)
Summary of the method: (§1)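 A single step with final 0.05% Triton X-100, 1% formaldehyde and 1 ug/ml Hoechst fixed the cells and stained nuclei 5 days after treatment. Lung cancer cell lines in 1536-well plates had been treated by pin tool the day after seeding with one drug alone or a fixed anchor-drug dose plus five library-drug doses (not always all listed) in √10 steps, and nuclei were counted on 4× images. Relative viability is the ratio of nuclei in treated wells to nuclei in vehicle wells, taken as the median of duplicate plates.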

[2] = compound: C#Cc1cccc(Nc2ncnc3cc(OC)c(OCCCCCCC(=O)NO)cc23)c1 [CUDC-101] + CS(=O)(=O)N1CCN(Cc2cc3nc(-c4cccc5[nH]ncc45)nc(N4CCOCC4)c3s2)CC1 [Pictilisib] (partner 1 µM)
Summary of the method: as §1

[3] = compound: C1=CC=C2C(=C1)N=C(S2)C(C#N)C3=NC(=NC=C3)NCCC4=CN=CC=C4 + Nc1ncn([C@H]2C[C@H](O)[C@@H](CO)O2)c(=O)n1 [Decitabine] (partner 2 µM)
Summary of the method: as §1

[4] = compound: COc1cc2/c(=N/c3ccc(Br)cc3F)nc[nH]c2cc1OCC1CCN(C)CC1 [Vandetanib] + CS(=O)(=O)N1CCN(Cc2cc3nc(-c4cccc5[nH]ncc45)nc(N4CCOCC4)c3s2)CC1 [Pictilisib] (partner 1 µM)
Summary of the method: as §1

| Cell Line | relative viability ([1]; first compound 0.01 µM) | relative viability ([1]; first compound 0.03162 µM) | relative viability ([1]; first compound 0.1 µM) | relative viability ([1]; first compound 0.3162 µM) | relative viability ([1]; first compound 1 µM) | relative viability ([2]; first compound 0.01 µM) | relative viability ([2]; first compound 0.03162 µM) | relative viability ([2]; first compound 0.1 µM) | relative viability ([2]; first compound 0.3162 µM) | relative viability ([2]; first compound 1 µM) | relative viability ([3]; first compound 0.005 µM) | relative viability ([3]; first compound 0.01581 µM) | relative viability ([3]; first compound 0.05 µM) | relative viability ([3]; first compound 0.1581 µM) | relative viability ([3]; first compound 0.5 µM) | relative viability ([4]; first compound 0.02 µM) | relative viability ([4]; first compound 0.06325 µM) | relative viability ([4]; first compound 0.2 µM) | relative viability ([4]; first compound 0.6325 µM) | relative viability ([4]; first compound 2 µM) |
| --- | --- | --- | --- | --- | --- | --- | --- | --- | --- | --- | --- | --- | --- | --- | --- | --- | --- | --- | --- | --- |
| NCI-H1975 | 0.38 | 0.322 | 0.347 | 0.692 | 0.319 | 0.336 | 0.323 | 0.265 | 0.24 | 0.192 | 0.436 | 0.341 | 0.334 | 0.432 | 0.434 | 0.285 | 0.26 | 0.296 | 0.27 | 0.301 |
| NCI-H1993 | 0.474 | 0.682 | 0.546 | 0.527 | 0.553 | 0.845 | 0.824 | 0.918 | 0.763 | 0.869 | 0.663 | 0.641 | 0.607 | 0.699 | 0.59 | 0.832 | 0.727 | 0.64 | 0.85 | 0.723 |
| NCI-H2009 | 0.307 | 0.245 | 0.274 | 0.34 | 0.292 | 0.813 | 0.824 | 0.963 | 0.917 | 0.699 | 0.37 | 0.386 | 0.379 | 0.427 | 0.397 | 0.78 | 0.669 | 0.79 | 0.828 | 0.81 |
| NCI-H2023 | 0.615 | 0.542 | 0.578 | 0.551 | 0.428 | 0.245 | 0.223 | 0.257 | 0.226 | 0.151 | 0.245 | 0.236 | 0.209 | 0.245 | 0.243 | 0.218 | 0.201 | 0.261 | 0.202 | 0.279 |
| NCI-H2085 | 0.607 | 0.496 | 0.706 | 0.604 | 0.505 | 0.539 | 0.549 | 0.493 | 0.489 | 0.304 | 0.518 | 0.555 | 0.585 | 0.502 | 0.533 | 0.428 | 0.421 | 0.398 | 0.363 | 0.513 |
| NCI-H2087 | 0.224 | 0.225 | 0.204 | 0.195 | 0.185 | 0.985 | 1.03 | 1.11 | 1.11 | 0.603 | 0.255 | 0.266 | 0.345 | 0.367 | 0.282 | 1 | 0.694 | 0.922 | 0.935 | 0.964 |
| NCI-H2126 | 0.552 | 0.545 | 0.56 | 0.522 | 0.415 | 0.501 | 0.545 | 0.432 | 0.446 | 0.315 | 0.495 | 0.579 | 0.565 | 0.546 | 0.577 | 0.461 | 0.46 | 0.468 | 0.418 | 0.481 |
| NCI-H2170 | 0.951 | 0.967 | 0.883 | 0.939 | 0.843 | 0.317 | 0.297 | 0.289 | 0.275 | 0.169 | 0.419 | 0.46 | 0.425 | 0.468 | 0.488 | 0.328 | 0.288 | 0.267 | 0.28 | 0.31 |
